Earlier results, collected in patent publication US12472190B2, “Pharmaceutical compositions” (CIPLA Limited, priority 2010, dated 2025).

Settings: relative to S (−) isomer of budesonide; no test described

CCC[C@@H]1O[C@@H]2C[C@H]3[C@@H]4CCC5=CC(=O)C=C[C@]5(C)[C@H]4[C@@H](O)C[C@]3(C)[C@]2(C(=O)CO)O1 [R (+) budesonide]
anti-inflammatory properties as compared to S (−) isomer: nearly three times as strong
